Test system: Microbes of the genus Salmonella: Salmonella Enteritidis IF03313
Type: cell-based
Conditions: stored at 25° C. Day 7; 1000 ppm available chlorine
Source text: 1) Chlorous acid aqueous solution formulation (see Example 1: Table 11) Treatment sheet (material: 100% cotton): (about 27×40 cm) *Impregnated at a ratio of weight of treatment sheet (g): amount of liquid (ml)=1:3 2) Imitation vomit Miso solution: adjusted to pH of 2 with hydrochloric acid 3) Test Microbes that were Used E. coli: Escherichia coli IF03927 Staphylococcus aureus: Staphylococcus aureus IF0 12732 Thermoduric Microbes (Bacillus cereus): Bacillus cereus NBRC15305 Microbes of the genus Salmonella: Salmonella Enteritidis IF03313 Enterohemorrhagic Escherichia coli O157: Escherichia coli O157 Enterohemorrhagic Escherichia coli O111: Escherichia coli O111 Enterohemorrhagic Escherichia coli O26: Escherichia coli O26
(1) Imitation vomit was spread in an area about the size of an A4 sheet. (2) 5 dry sheets were laid thereon. (3) An agent solution was poured on the dry sheets to wipe off the imitation vomit. (4) A cotton swab was soaked with sterile saline. A portion where imitation vomit was spread was scrubbed with the cotton swab to collect microbes remaining on the floor. After suspending in saline, the solution was spread on a petri dish and cultured. The number of each of the microbes was measured. (5) Test operations 3 and 4 were repeated a total of 7 times (repeated until the imitation vomit could be removed completely).

[Na] [Sodium]
<10: Number of Times Wiped 1 Time (remaining microbes) | Number of Times Wiped 2 Times (remaining microbes) | Number of Times Wiped 3 Times (remaining microbes)

Source: US20170015555A1, “LONG-TERM PRESERVATION AND NOVEL APPLICATION OF CHLOROUS ACID AQUEOUS SOLUTION FORMULATION” (priority 2013, published 2017)
